How the values were obtained:
BEL-7402 cells = assay: MTT cell proliferation assay; assay type: cell-based, human
Method: (§1) Human tumor cell lines Eca-109, BEL-7402, BxPC-3, HCT-116, HT-29, T24, HCT-8, SGC-7901, DLD-1, TE-1, BT-549, MGC-803 and human hepatocyte cell line L-02 were cultured in Roswell Park Memorial Institute (RPMI) 1640. HuH-7 and SW-480 were cultured in Dulbecco’s modified Eagle’s medium (DMEM). J82, HepG2, Hela, U87 were cultured in Minimum Essential Medium (MEM). Murine bladder cancer cell line, MB49, was cultured in DMEM. The above-mentioned culture medium was provided by GIBCO (Grand Island, USA), contained 10% fetal bovine serum (PAN, Germany), 10 mg/mL of streptomycin, and 10 kU/mL penicillin (Beyotime, China).
(§2) Cells were seeded in 96-well plates and incubated with indicated concentrations of CHNQD-01281 for indicated periods. Next, medium was discarded and MTT (5 mg/mL) was added to each well. The cells were incubated at 37 °C for another 4 h. After that, supernatant was discarded, and DMSO was added and incubated at 37 °C for 15 min. Finally, absorbance was measured at 570 nm (Molecular Devices, USA).
(§3) To investigate whether CHNQD-01281 had selective inhibitory effect on cancer cell lines, a variety of human tumor cell lines were assayed by MTT, such as bladder cancer cell lines (J82 and T24), colorectal cancer cell lines (HCT-116, HT-29, HCT-8, DLD-1 and SW-480), cervical cancer cell line (Hela), esophageal cancer cell lines (TE-1 and Eca-109), breast cancer cell line (BT-549), gastric carcinoma cell lines (MGC-803 and SGC-7901), glioma cell line (U87), pancreatic carcinoma cell line (BxPC-3) and hepatocellular carcinoma cell lines (Hep G2, BEL-7402 and HuH-7) (Fig. 2A).

BT-549 cells = assay: MTT cell proliferation assay; assay type: cell-based, human
Method: as §1, §2, §3

BxPC-3 cells = assay: MTT cell proliferation assay; assay type: cell-based, human
Method: as §1, §2, §3

DLD-1 cells = assay: MTT cell proliferation assay; assay type: cell-based, human
Method: as §1, §2, §3

MGC-803 cells = assay: MTT cell proliferation assay; assay type: cell-based, human
Method: as §1, §2, §3

T24 cells = assay: MTT cell proliferation assay; assay type: cell-based, human
Method: as §1, §2, §3

TE-1 cells = assay: MTT cell proliferation assay; assay type: cell-based, human
Method: as §1, §2, §3

U87 cells = assay: MTT cell proliferation assay; assay type: cell-based, human
Method: as §1, §2, §3

J82 cell line = assay: Colony formation assay; assay type: cell-based; details: Homo sapiens, 288 h, 12 days, read-out: inhibition rate on colony formation
Method: (§4) T24 and J82 cell lines were seeded in 6-well plates at 500 cells/well. The cells were cultured overnight in medium. Compound CHNQD-01281 was added according to the concentration gradient, and the cells were placed in a 37 °C cell incubator containing 5% CO2 for 12 days. The cells were then fixed with 4% paraformaldehyde for 15 min and stained with crystal violet for 30 min. After that, pictures were taken and colony numbers were counted. The clone formation rate relative to the solvent control group was calculated.
(§5) Cell proliferation ability was also detected by colony formation assay (Kabakov et al. [2018]), and the results are shown in Fig. 3A−B. CHNQD-01281 was applied for 12 days to detect long-term proliferation inhibition of T24 and J82 cell lines.

T24 cell line = assay: Colony formation assay; assay type: cell-based; details: Homo sapiens, T-24, 288 h, 12 days, read-out: inhibition rate on colony formation
Method: as §4, §5

[1] = Single-dose safety profile, HE staining of main organs; assay type: in vivo, C57BL/6 mice; details: single dose 100 mg/kg, i.p.
Method: To further investigate the safety profile of CHNQD-01281 in vivo, the HE staining of the heart, liver, spleen, lung, kidney and duodenum of C57 mice were analyzed after the single dose of CHNQD-01281 (100 mg/kg, i.p.). […] The distribution of CHNQD-01281 in tumor and main organs of C57BL/6 mice was then analyzed.
Fig. S14. Safety profile and tissue distribution of CHNQD-01281 in vivo. A Representative H&E staining images (scale bar: 50 μm) of main organs from vehicle and CHNQD-01281 (100 mg/kg, ip.) treated C57BL/6 mice (n = 3). B Bodyweight evaluation of mouse after treatment with vehicle and CHNQD-01281. C Tissue distribution of CHNQD-01281 in C57BL/6 mice (n = 3).

For `C[C@H]1CCC/C=C/[C@@H]2C[C@H](O)C[C@H]2[C@H](OC(=O)/C=C/c2cccnc2)/C=C/C(=O)O1` [CHNQD-01281, Brefeldin A 4-O-3-(pyridin-3-yl) acrylate], the IC90 (BEL-7402 cells; Homo sapiens, BEL-7402, MTT) was 820 nM, the IC50 (BEL-7402 cells; Homo sapiens, BEL-7402, MTT, 72 h) was 260 nM and the “SI (selectivity index)” value (BEL-7402 cells; L-02 versus BEL-7402) was 4.46. The IC90 (BT-549 cells; Homo sapiens, BT-549, MTT) was over 1000 nM, the IC50 (BT-549 cells; Homo sapiens, BT-549, MTT, 72 h) was 640 nM and the “SI (selectivity index)” value (BT-549 cells; L-02 versus BT-549) was 1.81. The IC90 (BxPC-3 cells; Homo sapiens, BxPC-3, MTT) was 350 nM, the IC50 (BxPC-3 cells; Homo sapiens, BxPC-3, MTT, 72 h) was 180 nM and the “SI (selectivity index)” value (BxPC-3 cells; L-02 versus BxPC-3) was 6.44. The IC90 (DLD-1 cells; Homo sapiens, DLD-1, MTT) was 640 nM, the IC50 (DLD-1 cells; Homo sapiens, DLD-1, MTT, 72 h) was 340 nM and the “SI (selectivity index)” value (DLD-1 cells; L-02 versus DLD-1) was 3.41. For the same compound, the IC90 (MGC-803 cells; Homo sapiens, MGC-803, MTT) was over 1000 nM, the IC50 (MGC-803 cells; Homo sapiens, MGC-803, MTT, 72 h) was 690 nM and the “SI (selectivity index)” value (MGC-803 cells; L-02 versus MGC-803) was 1.68. The inhibition at 0.125 µM (T24 cells; Homo sapiens, T-24, T24, 0.125 µmol/L, 120 h, read-out: inhibition of growth) was about 100%, the inhibition at 1 µM (T24 cells; Homo sapiens, T-24, T24, 1 µmol/L (highest concentration), 24 h) was under 50% and the IC90 (T24 cells; Homo sapiens, T-24, T24, MTT) was 300 nM. The IC50 (T24 cells; Homo sapiens, T-24, T24, MTT, 72 h) was 79 nM, the “SI (selectivity index)” value (T24 cells; L-02 versus T24) was 14.68 and the IC90 (TE-1 cells; Homo sapiens, TE-1, MTT) was over 1000 nM. For the same compound, the IC50 (TE-1 cells; Homo sapiens, TE-1, MTT, 72 h) was 620 nM, the “SI (selectivity index)” value (TE-1 cells; L-02 versus TE-1) was 1.87 and the IC90 (U87 cells; Homo sapiens, U-87 MG, U87, MTT) was over 1000 nM. The IC50 (U87 cells; Homo sapiens, U-87 MG, U87, MTT, 72 h) was 650 nM, the “SI (selectivity index)” value (U87 cells; L-02 versus U87) was 1.78 and the inhibition at 0.04 µM (J82 cell line; J82, 0.04 µmol/L) was 25.1%. It also gave an inhibition at 0.08 µM (J82 cell line; J82, 0.08 µmol/L) of 58.3%, an inhibition at 0.16 µM (J82 cell line; J82, 0.16 µmol/L) of 85.9% and an inhibition at 0.04 µM (T24 cell line; T24, 0.04 µmol/L) of 17%. The inhibition at 0.08 µM (T24 cell line; T24, 0.08 µmol/L) was 52.5%, the inhibition at 0.16 µM (T24 cell line; T24, 0.16 µmol/L) was 95.5% and the “HE staining of heart, liver, spleen, lung, kidney and duodenum” value [1] was “no obvious abnormalities in cell and tissue morphology”.

From publication PMC11358582, “Discovery of a potential bladder cancer inhibitor CHNQD-01281 by regulating EGFR and promoting infiltration of cytotoxic T cells” (Marine Life Science & Technology, 2024)
